Assay results: ChEMBL document CHEMBL1649490, “First detection of plasmid-encoded blaOXY beta-lactamase” (2009)
Values after ≈ are worked out from the molar mass of the structure shown.

Key:
Type in all cases: functional
Klebsiella pneumoniae [1] = experiment: Antimicrobial activity against Klebsiella pneumoniae 278sp by Etest method
Klebsiella oxytoca [2] = experiment: Antimicrobial activity against Klebsiella oxytoca KO279 harboring beta-lactamase OXY-1 by Etest method
Klebsiella oxytoca [3] = experiment: Antimicrobial activity against Klebsiella oxytoca KO281 harboring beta-lactamase OXY-1 and CMY-2 by Etest method
Klebsiella pneumoniae [4] = experiment: Antimicrobial activity against Klebsiella pneumoniae 101A harboring beta-lactamase CMY-2 by Etest method
Escherichia coli [5] = experiment: Antimicrobial activity against Escherichia coli TF-KP278 harboring beta-lactamase OXY-1 by Etest method
Escherichia coli [6] = experiment: Antimicrobial activity against Escherichia coli DH5alpha by Etest method; conditions: DH5[alpha]
Escherichia coli [7] = experiment: Antimicrobial activity against Escherichia coli TF-KO281 harboring beta-lactamase OXY-1 by Etest method
Klebsiella oxytoca [8] = experiment: Antimicrobial activity against Klebsiella oxytoca KO280 harboring beta-lactamase OXY-1 by Etest method
Escherichia coli [9] = experiment: Antimicrobial activity against Escherichia coli TF-KO279 harboring beta-lactamase OXY-1 by Etest method
Klebsiella pneumoniae [10] = experiment: Antimicrobial activity against Klebsiella pneumoniae 278 harboring beta-lactamase OXY-1 by Etest method

Structure (SMILES)	MIC (Klebsiella pneumoniae [1])	MIC (Klebsiella oxytoca [2])	MIC (Klebsiella oxytoca [3])	MIC (Klebsiella pneumoniae [4])	MIC (Escherichia coli [5])	MIC (Escherichia coli [6])	MIC (Escherichia coli [7])	MIC (Klebsiella oxytoca [8])	MIC (Escherichia coli [9])	MIC (Klebsiella pneumoniae [10])
CC1(C)S[C@@H]2[C@H](NC(=O)[C@H](N)c3ccccc3)C(=O)N2[C@H]1C(=O)O [AMPICILLIN]	96 µg/mL (≈ 275 µM)	≥ 256 µg/mL	≥ 256 µg/mL	≥ 256 µg/mL	≥ 256 µg/mL	4 µg/mL (≈ 11.4 µM)	≥ 256 µg/mL	≥ 256 µg/mL	≥ 256 µg/mL	≥ 256 µg/mL
C[C@H]1[C@H](NC(=O)/C(=N\OC(C)(C)C(=O)O)c2csc(N)n2)C(=O)N1S(=O)(=O)O [AZTREONAM]	0.064 µg/mL (≈ 0.147 µM)	≥ 256 µg/mL	≥ 256 µg/mL	6 µg/mL (≈ 13.8 µM)	64 µg/mL (≈ 147 µM)	0.023 µg/mL (≈ 0.0528 µM)	128 µg/mL (≈ 294 µM)	≥ 256 µg/mL	64 µg/mL (≈ 147 µM)	32 µg/mL (≈ 73.5 µM)
CO/N=C(\C(=O)N[C@@H]1C(=O)N2C(C(=O)[O-])=C(C[N+]3(C)CCCC3)CS[C@H]12)c1csc(N)n1 [CEFEPIME]	0.19 µg/mL (≈ 0.395 µM)	1.5 µg/mL (≈ 3.12 µM)	1.5 µg/mL (≈ 3.12 µM)	0.5 µg/mL (≈ 1.04 µM)	–	0.032 µg/mL (≈ 0.0666 µM)	0.38 µg/mL (≈ 0.791 µM)	1.5 µg/mL (≈ 3.12 µM)	–	1 µg/mL (≈ 2.08 µM)
CO/N=C(\C(=O)N[C@@H]1C(=O)N2C(C(=O)O)=C(COC(C)=O)CS[C@H]12)c1csc(N)n1 [CEFOTAXIME]	0.047 µg/mL (≈ 0.103 µM)	1.5 µg/mL (≈ 3.29 µM)	16 µg/mL (≈ 35.1 µM)	6 µg/mL (≈ 13.2 µM)	0.25 µg/mL (≈ 0.549 µM)	0.023 µg/mL (≈ 0.0505 µM)	0.38 µg/mL (≈ 0.834 µM)	1.5 µg/mL (≈ 3.29 µM)	0.25 µg/mL (≈ 0.549 µM)	1 µg/mL (≈ 2.2 µM)
CO[C@@]1(NC(=O)Cc2cccs2)C(=O)N2C(C(=O)O)=C(COC(N)=O)CS[C@@H]21 [CEFOXITIN]	4 µg/mL (≈ 9.36 µM)	3 µg/mL (≈ 7.02 µM)	≥ 256 µg/mL	≥ 256 µg/mL	2 µg/mL (≈ 4.68 µM)	2 µg/mL (≈ 4.68 µM)	2 µg/mL (≈ 4.68 µM)	3 µg/mL (≈ 7.02 µM)	2 µg/mL (≈ 4.68 µM)	4 µg/mL (≈ 9.36 µM)
CC(C)(O/N=C(\C(=O)N[C@@H]1C(=O)N2C(C(=O)[O-])=C(C[n+]3ccccc3)CS[C@H]12)c1csc(N)n1)C(=O)O [CEFTAZIDIME]	1 µg/mL (≈ 1.83 µM)	4 µg/mL (≈ 7.32 µM)	≥ 256 µg/mL	64 µg/mL (≈ 117 µM)	0.75 µg/mL (≈ 1.37 µM)	0.25 µg/mL (≈ 0.457 µM)	1 µg/mL (≈ 1.83 µM)	4 µg/mL (≈ 7.32 µM)	0.75 µg/mL (≈ 1.37 µM)	1.5 µg/mL (≈ 2.74 µM)
O=C(O)c1cn(C2CC2)c2cc(N3CCNCC3)c(F)cc2c1=O [CIPROFLOXACIN]	0.047 µg/mL (≈ 0.142 µM)	0.38 µg/mL (≈ 1.15 µM)	0.38 µg/mL (≈ 1.15 µM)	0.047 µg/mL (≈ 0.142 µM)	–	0.032 µg/mL (≈ 0.0966 µM)	–	0.25 µg/mL (≈ 0.754 µM)	–	0.38 µg/mL (≈ 1.15 µM)
C[C@@H](O)[C@H]1C(=O)N2C(C(=O)O)=C(SCCNC=N)C[C@H]12 [IMIPENEM ANHYDROUS]	0.25 µg/mL (≈ 0.835 µM)	0.25 µg/mL (≈ 0.835 µM)	0.25 µg/mL (≈ 0.835 µM)	0.38 µg/mL (≈ 1.27 µM)	0.19 µg/mL (≈ 0.635 µM)	0.19 µg/mL (≈ 0.635 µM)	0.19 µg/mL (≈ 0.635 µM)	0.25 µg/mL (≈ 0.835 µM)	0.19 µg/mL (≈ 0.635 µM)	0.25 µg/mL (≈ 0.835 µM)
CCn1cc(C(=O)O)c(=O)c2cc(F)c(N3CCNCC3)cc21 [NORFLOXACIN]	0.125 µg/mL (≈ 0.391 µM)	1.5 µg/mL (≈ 4.7 µM)	1.5 µg/mL (≈ 4.7 µM)	0.125 µg/mL (≈ 0.391 µM)	0.38 µg/mL (≈ 1.19 µM)	0.094 µg/mL (≈ 0.294 µM)	0.5 µg/mL (≈ 1.57 µM)	1 µg/mL (≈ 3.13 µM)	0.5 µg/mL (≈ 1.57 µM)	1 µg/mL (≈ 3.13 µM)
